Test results as given in patent US20250034210A1, “DLL3 TARGETING PEPTIDES AND CONSTRUCTS THEREOF” (MARIANA ONCOLOGY INC., priority 2023, published 2025).
*1 amine or outer side, *2 acyl side, *3 side chain or, on linkers, in order; H or OH if unused. Where a SMILES comes first, the peptide text is derived from it. Bridges are numbered along the chain shown (N, C = ends). [ ]: non-standard residue; d: D form. The star is where a group is joined. DOTA = O=C(O)CN1CCN(CC(=O)O)CCN(CC(=O)*)CCN(CC(=O)O)CC1; Phe(2-CF3) = N[C@@H](Cc1ccccc1C(F)(F)F)C(=O)O; Pro(trans-4-F) = O=C(O)[C@@H]1C[C@@H](F)CN1; d(γGlu) = O=C(O)[C@@H](CCC(=O)[*:2])N[*:1]; Pro(cis-4-F) = O=C(O)[C@@H]1C[C@H](F)CN1; Pro(4S-NH2) = N[C@@H]1CN[C@H](C(=O)O)C1; Pro(4R-NH2) = N[C@H]1CN[C@H](C(=O)O)C1; cisHyp = O=C(O)[C@@H]1C[C@H](O)CN1; Hyp = O=C(O)[C@@H]1C[C@@H](O)CN1; dNle = CCCC[C@@H](N)C(=O)O; Pip = O=C(O)[C@@H]1CCCCN1; Ahx = NCCCCCC(=O)O

What follows are compounds tested against T1, human DLL3 (Homo sapiens, UniProt Q9NYJ7) (assay: Affinity determination by Surface Plasmon Resonance (SPR), biotinylated human DLL3 immobilized on streptavidin sensor chip). Details: 25° C., Biacore, 1:1 binding model.
T1 construct: biotin (biotinylated)
T1 sequence (Q9NYJ7 27-618): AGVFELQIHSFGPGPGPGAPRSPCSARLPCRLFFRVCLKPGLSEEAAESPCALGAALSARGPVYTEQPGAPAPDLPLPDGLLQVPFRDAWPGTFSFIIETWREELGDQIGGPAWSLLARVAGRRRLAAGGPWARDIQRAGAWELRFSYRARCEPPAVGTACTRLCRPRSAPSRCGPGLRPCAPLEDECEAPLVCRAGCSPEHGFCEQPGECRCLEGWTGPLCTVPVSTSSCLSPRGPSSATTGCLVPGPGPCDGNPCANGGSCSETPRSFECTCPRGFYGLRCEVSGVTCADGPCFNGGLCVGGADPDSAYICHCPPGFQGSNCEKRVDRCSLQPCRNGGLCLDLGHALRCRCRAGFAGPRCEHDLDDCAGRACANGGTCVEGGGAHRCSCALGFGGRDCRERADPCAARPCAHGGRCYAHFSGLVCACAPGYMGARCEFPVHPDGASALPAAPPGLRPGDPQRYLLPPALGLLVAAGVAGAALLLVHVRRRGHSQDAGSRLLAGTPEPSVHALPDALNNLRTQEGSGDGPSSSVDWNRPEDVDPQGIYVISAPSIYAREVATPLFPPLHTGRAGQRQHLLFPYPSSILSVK
Procedure: Affinity Determination by Surface Plasmon Resonance (SPR). SPR studies were performed on the compounds disclosed herein using the following protocol.
The binding affinity and binding kinetic parameters at 25° C. were determined using Biacore S200 or biacore 8K instrument. Biotinylated target ligand human DLL3 was immobilized on a streptavidin sensor chip. A reference surface was set up for nonspecific binding and refractive index changes. For analysis of the kinetics of interactions, varying concentrations of samples were injected at a flow rate of 100 μL/min using running buffer containing 20 mM phosphate buffer with 2.7 mM KCl, 137 mM NaCl, 0.05% Surfactant P20 and 2% DMSO. Sensorgram curves were fitted with 1:1 binding model, and affinity and kinetic parameters were obtained using Biacore Insight evaluation 4.0. software.

First: C[C@@H](O)[C@H](NC(=O)[C@H](Cc1c[nH]c2ccccc12)NC(=O)CCCCCNC(=O)CN1CCN(CC(=O)O)CCN(CC(=O)O)CCN(CC(=O)O)CC1)C(=O)N[C@@H](Cc1ccccc1C(F)(F)F)C(=O)N[C@H]1CSSC[C@@H](C(=O)N[C@@H](Cc2c[nH]c3ccccc23)C(=O)N2CCC[C@H]2C(N)=O)NC(=O)[C@H](CC(=O)O)NC(=O)[C@H](Cc2cnc[nH]2)NC(=O)[C@H](Cc2c[nH]c3ccccc23)NC(=O)[C@H](CC(N)=O)NC(=O)[C@H](CC(N)=O)NC1=O [compound 65, DOTA-Ahx-W-T-(2CF3-F)-C(3)-N-N-W-H-D-C(3)-W-P-CONH2] ({DOTA-Ahx}-WT[Phe(2-CF3)]CNNWHDCWP-NH2; disulfide 4-10)
Second: CC[C@H](C)[C@H](NC(=O)[C@@H](NC(=O)[C@H](Cc1c[nH]c2ccccc12)NC(=O)CCCCCNC(=O)CN1CCN(CC(=O)O)CCN(CC(=O)O)CCN(CC(=O)O)CC1)[C@@H](C)O)C(=O)N[C@H]1CSSC[C@@H](C(=O)N[C@@H](Cc2c[nH]c3ccccc23)C(=O)N2CCCC[C@H]2C(N)=O)NC(=O)[C@H](CC(=O)O)NC(=O)[C@H](Cc2cnc[nH]2)NC(=O)[C@H](Cc2c[nH]c3ccccc23)NC(=O)[C@H](CC(N)=O)NC(=O)[C@H](CC(N)=O)NC1=O [compound 70, DOTA-Ahx-W-T-I-C(3)-N-N-W-H-D-C(3)-W-(Pip)-CONH2] ({DOTA-Ahx}-WTICNNWHDCW[Pip]-NH2; disulfide 4-10)
The Kd of the first is lower: 0.001 to 0.01 µM for the first, 0.01 to 0.1 µM for the second. The first binds more tightly here.

First: CC[C@H](C)[C@H](NC(=O)[C@@H](NC(=O)[C@H](Cc1c[nH]c2ccccc12)NC(=O)CCCCCNC(=O)CN1CCN(CC(=O)O)CCN(CC(=O)O)CCN(CC(=O)O)CC1)[C@@H](C)O)C(=O)N[C@H]1CSSC[C@@H](C(=O)N[C@@H](Cc2c[nH]c3ccccc23)C(=O)N2C[C@H](F)C[C@H]2C(N)=O)NC(=O)[C@H](CC(=O)O)NC(=O)[C@H](Cc2cnc[nH]2)NC(=O)[C@H](Cc2c[nH]c3ccccc23)NC(=O)[C@H](CC(N)=O)NC(=O)[C@H](CC(N)=O)NC1=O [compound 66, DOTA-Ahx-W-T-I-C(3)-N-N-W-H-D-C(3)-W-(trans4Fluoro-P)-CONH2] ({DOTA-Ahx}-WTICNNWHDCW[Pro(trans-4-F)]-NH2; disulfide 4-10)
Second: CC[C@H](C)[C@H](NC(=O)[C@@H](NC(=O)[C@H](Cc1c[nH]c2ccccc12)NC(=O)CCCCCNC(=O)CN1CCN(CC(=O)O)CCN(CC(=O)O)CCN(CC(=O)O)CC1)[C@@H](C)O)C(=O)N[C@H]1CSSC[C@@H](C(=O)N[C@@H](Cc2c[nH]c3ccccc23)C(=O)N2C[C@@H](F)C[C@H]2C(N)=O)NC(=O)[C@H](CC(=O)O)NC(=O)[C@H](Cc2cnc[nH]2)NC(=O)[C@H](Cc2c[nH]c3ccccc23)NC(=O)[C@H](CC(N)=O)NC(=O)[C@H](CC(N)=O)NC1=O [compound 67, DOTA-Ahx-W-T-I-C(3)-N-N-W-H-D-C(3)-W-(Cis4Fluoro-P)-CONH2] ({DOTA-Ahx}-WTICNNWHDCW[Pro(cis-4-F)]-NH2; disulfide 4-10)
The Kd of the first is lower: 0.001 to 0.01 µM for the first, 0.1 to 0.3 µM for the second.

First: CC[C@H](C)[C@H](NC(=O)[C@@H](NC(=O)[C@H](Cc1c[nH]c2ccccc12)NC(=O)CCCCCNC(=O)CN1CCN(CC(=O)O)CCN(CC(=O)O)CCN(CC(=O)O)CC1)[C@@H](C)O)C(=O)N[C@H]1CSSC[C@@H](C(=O)N[C@@H](Cc2c[nH]c3ccccc23)C(=O)N2C[C@H](O)C[C@H]2C(N)=O)NC(=O)[C@H](CC(=O)O)NC(=O)[C@H](Cc2cnc[nH]2)NC(=O)[C@H](Cc2c[nH]c3ccccc23)NC(=O)[C@H](CC(N)=O)NC(=O)[C@H](CC(N)=O)NC1=O [compound 68, DOTA-Ahx-W-T-I-C(3)-N-N-W-H-D-C(3)-W-(trans4OH-P)-CONH2] ({DOTA-Ahx}-WTICNNWHDCW[Hyp]-NH2; disulfide 4-10)
Second: CC[C@H](C)[C@H](NC(=O)[C@@H](NC(=O)[C@H](Cc1c[nH]c2ccccc12)NC(=O)CCCCCNC(=O)CN1CCN(CC(=O)O)CCN(CC(=O)O)CCN(CC(=O)O)CC1)[C@@H](C)O)C(=O)N[C@H]1CSSC[C@@H](C(=O)N[C@@H](Cc2c[nH]c3ccccc23)C(=O)N2C[C@@H](O)C[C@H]2C(N)=O)NC(=O)[C@H](CC(=O)O)NC(=O)[C@H](Cc2cnc[nH]2)NC(=O)[C@H](Cc2c[nH]c3ccccc23)NC(=O)[C@H](CC(N)=O)NC(=O)[C@H](CC(N)=O)NC1=O [compound 69, DOTA-Ahx-W-T-I-C(3)-N-N-W-H-D-C(3)-W-(cis4OH-P)-CONH2] ({DOTA-Ahx}-WTICNNWHDCW[cisHyp]-NH2; disulfide 4-10)
The Kd of the first is lower: 0.01 to 0.1 µM for the first, 0.1 to 0.3 µM for the second. The first binds more tightly here.

First: CC[C@H](C)[C@H](NC(=O)[C@@H](NC(=O)[C@H](Cc1c[nH]c2ccccc12)NC(=O)[C@@H](CCCCNC(=O)CN1CCN(CC(=O)O)CCN(CC(=O)O)CCN(CC(=O)O)CC1)NC(C)=O)[C@@H](C)O)C(=O)N[C@H]1CSSC[C@@H](C(=O)N[C@@H](Cc2c[nH]c3ccccc23)C(=O)N2CCC[C@H]2C(N)=O)NC(=O)[C@H](CC(=O)O)NC(=O)[C@H](Cc2c[nH]cn2)NC(=O)[C@H](Cc2c[nH]c3ccccc23)NC(=O)[C@H](CC(N)=O)NC(=O)[C@H](CC(N)=O)NC1=O [compound 73, Ac-D-Lys(DOTA)-W-T-I-C(3)-N-N-W-H-D-C(3)-W-P-CONH2] (Ac-[dK](DOTA)WTICNNWHDCWP-NH2; disulfide 5-11)
Second: CCCC[C@@H](NC(=O)[C@@H]1CCCN1C(=O)[C@H](Cc1c[nH]c2ccccc12)NC(=O)[C@@H]1CSSC[C@H](NC(=O)[C@@H](NC(=O)[C@@H](NC(=O)[C@H](Cc2c[nH]c3ccccc23)NC(=O)CCCCCNC(=O)CN2CCN(CC(=O)O)CCN(CC(=O)O)CCN(CC(=O)O)CC2)[C@@H](C)O)[C@@H](C)CC)C(=O)N[C@@H](CC(N)=O)C(=O)N[C@@H](CC(N)=O)C(=O)N[C@@H](Cc2c[nH]c3ccccc23)C(=O)N[C@@H](Cc2cnc[nH]2)C(=O)N[C@@H](CC(=O)O)C(=O)N1)C(N)=O [compound 163, DOTA-Ahx-W-T-I-C(3)-N-N-W-H-D-C(3)-W-P-(D-Nle)-NH2] ({DOTA-Ahx}-WTICNNWHDCWP[dNle]-NH2; disulfide 4-10)
The Kd of the first is higher: 0.01 to 0.1 µM for the first, 0.001 to 0.01 µM for the second. The second binds more tightly here.

`CC[C@H](C)[C@H](NC(=O)[C@@H](NC(=O)[C@H](Cc1c[nH]c2ccccc12)NC(=O)CC[C@@H](NC(=O)CC[C@@H](NC(=O)CC[C@@H](NC(=O)CN1CCN(CC(=O)O)CCN(CC(=O)O)CCN(CC(=O)O)CC1)C(=O)O)C(=O)O)C(=O)O)[C@@H](C)O)C(=O)N[C@H]1CSSC[C@@H](C(=O)N[C@@H](Cc2c[nH]c3ccccc23)C(=O)N2CCC[C@H]2C(=O)O)NC(=O)[C@H](CC(=O)O)NC(=O)[C@H](Cc2c[nH]cn2)NC(=O)[C@H](Cc2c[nH]c3ccccc23)NC(=O)[C@H](CC(N)=O)NC(=O)[C@H](CC(N)=O)NC1=O` [compound 221, DOTA-(D-gE)3-W-T-I-C(3)-N-N-W-H-D-C(3)-W-P-CONH2] ({DOTA-d(γGlu)-d(γGlu)-d(γGlu)}-WTICNNWHDCWP-OH; disulfide 4-10) and `CC[C@H](C)[C@H](NC(=O)[C@@H](NC(=O)[C@H](Cc1c[nH]c2ccccc12)NC(=O)CCCCCNC(=O)CN1CCN(CC(=O)O)CCN(CC(=O)O)CCN(CC(=O)O)CC1)[C@@H](C)O)C(=O)N[C@H]1CSSC[C@@H](C(=O)N[C@@H](Cc2c[nH]c3ccccc23)C(=O)N2C[C@H](N)C[C@H]2C(N)=O)NC(=O)[C@H](CC(=O)O)NC(=O)[C@H](Cc2cnc[nH]2)NC(=O)[C@H](Cc2c[nH]c3ccccc23)NC(=O)[C@H](CC(N)=O)NC(=O)[C@H](CC(N)=O)NC1=O` [compound 224, DOTA-Ahx-W-T-I-C(3)-N-N-W-H-D-C(3)-W-(trans4NH2-P)-CONH2] ({DOTA-Ahx}-WTICNNWHDCW[Pro(4R-NH2)]-NH2; disulfide 4-10) fall in the same range of Kd: 0.01 to 0.1 µM for the first, 0.01 to 0.1 µM for the second.

`CC[C@H](C)[C@H](NC(=O)[C@@H](NC(=O)[C@H](Cc1c[nH]c2ccccc12)NC(=O)CCCCCNC(=O)CN1CCN(CC(=O)O)CCN(CC(=O)O)CCN(CC(=O)O)CC1)[C@@H](C)O)C(=O)N[C@H]1CSSC[C@@H](C(=O)N[C@@H](Cc2c[nH]c3ccccc23)C(=O)N2C[C@@H](N)C[C@H]2C(N)=O)NC(=O)[C@H](CC(=O)O)NC(=O)[C@H](Cc2cnc[nH]2)NC(=O)[C@H](Cc2c[nH]c3ccccc23)NC(=O)[C@H](CC(N)=O)NC(=O)[C@H](CC(N)=O)NC1=O` [compound 225, DOTA-Ahx-W-T-I-C(3)-N-N-W-H-D-C(3)-W-(cis4NH2-P)-CONH2] ({DOTA-Ahx}-WTICNNWHDCW[Pro(4S-NH2)]-NH2; disulfide 4-10) was tested, and the Kd was 0.01 to 0.1 µM.
